# Assay results reported in patent US11932628B2, “Selective small molecule peptidomimetic melanocortin ligands” (REGENTS OF THE UNIVERSITY OF MINNESOTA, priority 2021, dated 2024).
# Experiments:
# mMC4R [1] = target: T1, mMC4R (Mus musculus, UniProt P56450); test: Schild analysis of antagonist activity at mMC4R; settings: for mMC4R Antagonist pA2: Schild analysis
# Description: The antagonist activity may also be reported as a Ki value, which is the inverse Log of pA2. […] Compounds were dissolved in DMSO at a stock concentration of 10^−2 M and stored at −20° C. until assayed. HEK-293 cells stably expressing the selected melanocortin receptors were transiently transfected with 4 μg of CRE/β-galactosidase reporter gene. Briefly, 5000-15000 post transfection cells were plated into collagen treated 96-well plates (Nunc) and incubated overnight. […] The assay media was aspirated, and 50 μL of lysis buffer (250 mM Tris-HCl pH=8.0 and 0.1% Triton X-100) was added. The plates were stored at −80° C. overnight. The plates containing the cell lysates were thawed the following day. Aliquots of 10 μL were taken from each well and transferred to another 96-well plate for relative protein determination. To the cell lysate plates, 40 μL of phosphate-buffered saline with 0.5% BSA was added to each well. Subsequently, 150 μL of substrate buffer (60 mM sodium phosphate, 1 mM MgCl2, 10 mM KCl, 5 mM β-mercaptoethanol, 2 mg/mL ONPG) was added to each well and the plates were incubated at 37° C. The sample absorbance, OD405, was measured using a 96-well plate reader (Molecular Devices). The relative protein was determined by adding 200 μL of 1:5 dilution BioRad G250 protein dye:water to the 10 μL of cell lysate sample taken previously, and the OD595 was measured on a 96-well plate reader (Molecular Devices). Data points were normalized to forskolin and the relative protein content were used as positive controls. The EC50 values represent the mean of three or more independent experiments. The EC50 estimates, and their associated standard errors of the mean, were determined by fitting the data to a nonlinear least-squares analysis using the PRISM program (v4.0, GraphPad Inc.).
# The reported values are on a log scale. In order to put them into perspective, their approximate binding disassociation constants, Ki values, can be calculated through the following relationship pA2=−Log10 (Ki).
# mMC1R = mMC1R (Mus musculus, UniProt Q01727); test: cAMP based functional bioassay (CRE/β-galactosidase reporter), agonist activity at mMC1R; settings: for mMC1R Activity @ 10 μM (class) / mMC1R Activity @ 10 μM (relative activity, percent): reported where receptor not activated to full activity
# Description: (§1) The compounds were evaluated using a whole cell assay.
# (§2) Compounds were dissolved in DMSO at a stock concentration of 10^−2 M and stored at −20° C. until assayed. HEK-293 cells stably expressing the selected melanocortin receptors were transiently transfected with 4 μg of CRE/β-galactosidase reporter gene. Briefly, 5000-15000 post transfection cells were plated into collagen treated 96-well plates (Nunc) and incubated overnight. […] The assay media was aspirated, and 50 μL of lysis buffer (250 mM Tris-HCl pH=8.0 and 0.1% Triton X-100) was added. The plates were stored at −80° C. overnight. The plates containing the cell lysates were thawed the following day. Aliquots of 10 μL were taken from each well and transferred to another 96-well plate for relative protein determination. To the cell lysate plates, 40 μL of phosphate-buffered saline with 0.5% BSA was added to each well. Subsequently, 150 μL of substrate buffer (60 mM sodium phosphate, 1 mM MgCl2, 10 mM KCl, 5 mM β-mercaptoethanol, 2 mg/mL ONPG) was added to each well and the plates were incubated at 37° C. The sample absorbance, OD405, was measured using a 96-well plate reader (Molecular Devices). The relative protein was determined by adding 200 μL of 1:5 dilution BioRad G250 protein dye:water to the 10 μL of cell lysate sample taken previously, and the OD595 was measured on a 96-well plate reader (Molecular Devices). Data points were normalized to forskolin and the relative protein content were used as positive controls. The EC50 values represent the mean of three or more independent experiments. The EC50 estimates, and their associated standard errors of the mean, were determined by fitting the data to a nonlinear least-squares analysis using the PRISM program (v4.0, GraphPad Inc.).
# (§3) The results are tabulated in the form of EC50 values. In the case where the particular receptor was not activated to full activity at 100,000 nM, then the relative activity was reported.
# mMC5R = mMC5R (Mus musculus, UniProt P41149); test: cAMP based functional bioassay (CRE/β-galactosidase reporter), agonist activity at mMC5R
# Description: as §1, §2, §3
# mMC3R = mMC3R (Mus musculus, UniProt P33033); test: cAMP based functional bioassay (CRE/β-galactosidase reporter), agonist activity at mMC3R
# Description: as §1, §2, §3
# mMC4R [2] = target: T1, mMC4R; test: cAMP based functional bioassay (CRE/β-galactosidase reporter), agonist activity at mMC4R; set-up: Emax: dose or concentration left out as unconfirmed; settings: for mMC4R Activity @ 10 μM (class) / mMC4R Activity @ 10 μM (relative activity, percent): reported where receptor not activated to full activity; for Emax: read-out: maximal activation at the melanocortin-4 receptor
# Description: as §1, §2, §3
# T1 sequence (P56450 whole entry): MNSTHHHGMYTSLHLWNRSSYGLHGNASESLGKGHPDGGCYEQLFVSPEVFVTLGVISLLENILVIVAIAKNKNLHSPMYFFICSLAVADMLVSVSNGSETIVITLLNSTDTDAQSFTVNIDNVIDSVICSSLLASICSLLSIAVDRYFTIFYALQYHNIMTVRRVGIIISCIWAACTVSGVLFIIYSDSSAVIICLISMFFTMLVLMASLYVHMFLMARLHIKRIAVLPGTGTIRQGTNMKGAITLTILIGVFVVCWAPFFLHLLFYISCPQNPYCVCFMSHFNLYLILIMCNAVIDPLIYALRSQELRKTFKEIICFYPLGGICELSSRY
# mMC3R, sequence (P33033 whole entry): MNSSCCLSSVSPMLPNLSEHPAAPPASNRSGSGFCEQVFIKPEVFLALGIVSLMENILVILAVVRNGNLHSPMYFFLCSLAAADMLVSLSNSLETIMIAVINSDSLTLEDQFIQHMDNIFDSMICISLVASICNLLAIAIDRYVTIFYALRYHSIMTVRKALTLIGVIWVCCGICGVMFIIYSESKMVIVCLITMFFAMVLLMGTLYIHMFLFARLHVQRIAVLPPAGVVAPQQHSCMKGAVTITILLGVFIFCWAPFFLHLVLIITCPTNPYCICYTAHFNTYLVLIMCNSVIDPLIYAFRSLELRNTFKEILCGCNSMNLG
# mMC5R, sequence (P41149 whole entry): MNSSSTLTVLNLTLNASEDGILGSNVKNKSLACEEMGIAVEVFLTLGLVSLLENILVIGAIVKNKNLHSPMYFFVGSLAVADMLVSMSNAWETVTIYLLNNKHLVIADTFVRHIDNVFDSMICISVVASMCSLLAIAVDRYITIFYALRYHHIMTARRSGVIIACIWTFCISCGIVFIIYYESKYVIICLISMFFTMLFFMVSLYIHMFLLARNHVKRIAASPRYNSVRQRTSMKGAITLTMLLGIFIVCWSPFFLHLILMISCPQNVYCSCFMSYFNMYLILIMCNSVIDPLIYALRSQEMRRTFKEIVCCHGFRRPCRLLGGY
# mMC1R, sequence (Q01727 whole entry): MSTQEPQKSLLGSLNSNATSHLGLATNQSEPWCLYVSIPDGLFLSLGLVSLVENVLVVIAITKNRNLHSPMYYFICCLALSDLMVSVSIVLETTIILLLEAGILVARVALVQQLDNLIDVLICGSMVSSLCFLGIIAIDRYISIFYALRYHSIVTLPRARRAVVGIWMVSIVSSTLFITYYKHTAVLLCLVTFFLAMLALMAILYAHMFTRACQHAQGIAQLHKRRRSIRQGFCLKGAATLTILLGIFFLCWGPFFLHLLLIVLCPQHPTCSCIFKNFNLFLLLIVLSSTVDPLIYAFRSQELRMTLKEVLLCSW
SMILES,Kb (mMC4R [1]),mMC1R Activity @ 10 μM (class) (mMC1R),"mMC1R Activity @ 10 μM (relative activity, percent) (mMC1R)",EC50 (mMC5R),EC50 (mMC3R),mMC4R Activity @ 10 μM (class) (mMC4R [2]),"mMC4R Activity @ 10 μM (relative activity, percent) (mMC4R [2])",EC50 (mMC1R),Ki (mMC4R [1]),mMC4R Antagonist pA2 (mMC4R [1]),EC50 values at the melanocortin-3 receptor (in words) (mMC3R),Emax (mMC4R [2])
"CC(C)C[C@@H]1CNC(=N)N1C[C@@H]1CCCN1C[C@@H](Cc1ccccc1)N1C[C@@H]([C@@H](C)O)N(CC23CC4CC(CC(C4)C2)C3)C1=N [TPI 2509-13, (R)-1-((S)-3-(adamantan-1-ylmethyl)-2-imino-1-((R)-1-((S)-2-(((R)-2-imino-5-isobutylimidazolidin-1-yl)methyl)pyrrolidin-1-yl)-3-phenylpropan-2-yl)imidazolidin-4-yl)ethanol]",2510 nM,B (B: >51%),41%,810 ± 280 nM,360 ± 40 nM,B (B: >51%),58%,,,,,
"CC(C)[C@@H]1CNC(=N)N1C[C@@H]1CCCN1C[C@@H](CC1CCCCC1)N1C[C@@H]([C@@H](C)O)N(CC2CCC(C(C)(C)C)CC2)C1=N (stereo partly drawn) [TPI 2509-23, (R)-1-((S)-3-((4-(tert-butyl)cyclohexyl)methyl)-1-((R)-1-cyclohexyl-3-((S)-2-(((R)-2-imino-5-isopropylimidazolidin-1-yl)methyl)pyrrolidin-1-yl)propan-2-yl)-2-iminoimidazolidin-4-yl)ethanol]",1260 nM,,,150 ± 20 nM,220 ± 30 nM,A (A: <50%),41%,300 ± 120 nM,,,,
"CC(C)C[C@@H]1CNC(=N)N1C[C@@H]1CCCN1C[C@@H](Cc1ccccc1)N1C[C@@H]([C@@H](C)O)N(CC2CCC(C(C)(C)C)CC2)C1=N (stereo partly drawn) [TPI 2509-14, (R)-1-((S)-3-((4-(tert-butyl)cyclohexyl)methyl)-2-imino-1-((R)-1-((S)-2-(((R)-2-imino-5-isobutylimidazolidin-1-yl)methyl)pyrrolidin-1-yl)-3-phenylpropan-2-yl)imidazolidin-4-yl)ethanol]",100 nM,B (B: >51%),58%,530 ± 50 nM,310 ± 60 nM,A (A: <50%),,,100 nM,7.0±0.7,nanomolar,> 20%
"CC(C)[C@@H]1CNC(=N)N1C[C@@H]1CCCN1C[C@@H](Cc1ccccc1)N1C[C@@H]([C@@H](C)O)N(CC2CCC(C(C)(C)C)CC2)C1=N (stereo partly drawn) [TPI 2509-32, (R)-1-((S)-3-((4-(tert-butyl)cyclohexyl)methyl)-2-imino-1-((R)-1-((S)-2-(((R)-2-imino-5-isopropylimidazolidin-1-yl)methyl)pyrrolidin-1-yl)-3-phenylpropan-2-yl)imidazolidin-4-yl)ethanol]",316 nM,,,490 ± 155 nM,420 ± 120 nM,A (A: <50%),,600 ± 340 nM,320 nM,6.5±0.5,nanomolar,> 20%
"CCC[C@@H]1CN([C@H](CC2CCCCC2)CN2CCC[C@H]2CN2C(=N)NC[C@H]2C(C)C)C(=N)N1CC1CCC(C(C)(C)C)CC1 (stereo partly drawn) [TPI 2509-26, (R)-3-((4-(tert-butyl)cyclohexyl)methyl)-1-((R)-1-cyclohexyl-3-((S)-2-(((R)-2-imino-5-isopropylimidazolidin-1-yl)methyl)pyrrolidin-1-yl)propan-2-yl)-4-propylimidazolidin-2-imine]",1580 nM,B (B: >51%),,540 ± 50 nM,350 ± 20 nM,A (A: <50%),50%,,,,,
"CC(C)C[C@@H]1CNC(=N)N1C[C@@H]1CCCN1C[C@@H](CC1CCCCC1)N1C[C@@H]([C@@H](C)O)N(CC23CC4CC(CC(C4)C2)C3)C1=N [TPI 2509-4, (R)-1-((S)-3-(adamantan-1-ylmethyl)-1-((R)-1-cyclohexyl-3-((S)-2-(((R)-2-imino-5-isobutylimidazolidin-1-yl)methyl)pyrrolidin-1-yl)propan-2-yl)-2-iminoimidazolidin-4-yl)ethanol]",3160 nM,,,340 ± 140 nM,240 ± 40 nM,,55%,330 ± 110 nM,,,,
"CC(C)[C@@H]1CNC(=N)N1C[C@@H]1CCCN1C[C@@H](Cc1ccccc1)N1C[C@@H]([C@@H](C)O)N(CC23CC4CC(CC(C4)C2)C3)C1=N [TPI 2509-31, (R)-1-((S)-3-(adamantan-1-ylmethyl)-2-imino-1-((R)-1-((S)-2-(((R)-2-imino-5-isopropylimidazolidin-1-yl)methyl)pyrrolidin-1-yl)-3-phenylpropan-2-yl)imidazolidin-4-yl)ethanol]",1580 nM,,,180 ± 90 nM,360 ± 10 nM,,50%,440 ± 140 nM,,,,
